According to patent US12503438B2, “Compounds for the treatment of kinase-dependent disorders” (Exelixis, Inc., priority 2019, dated 2025):

Columns and labels:
Assay type in all cases: cell-based
KDR = KDR (Homo sapiens, UniProt P35968); experiment: KDR autophosphorylation ELISA in HUVEC cells; design: endogenous in cells; host or cells: HUVEC (Lonza #C2519A); conditions: cellular activity, VEGF165-stimulated, phospho-KDR ELISA
Experimental: Human umbilical vein endothelial cells or HUVEC (Lonza #C2519A) were seeded at 2×10^4 cells/well onto 96-well plates (Corning #3904), in EGM-2 growth medium (Lonza #CC-3162) containing 1% Penicillin Streptomycin (Thermo Fisher #15140-122). HUVEC cells were incubated at 37° C., 5% CO2 for 24 h and then starved for 24 h in serum-free EBM-2 basal medium (Lonza #CC-3156) containing 1% Penicillin Streptomycin. Test compounds were serially diluted to produce an 8-point dose curve in fresh serum-free medium to a final concentration of 0.3% DMSO (vehicle) and added to the cells and incubated for 1 h. Cells were then stimulated with 100 ng/mL recombinant human VEGF165 (R&D Systems #293-VE-500) for 5 min, washed with cold PBS, and immediately lysed with 130 μL of cold 1× lysis buffer [20 mM Tris, 137 mM sodium chloride, 2 mM EDTA, 10% glycerol, 1% NP-40 alternative, 1 mM activated sodium orthovanadate, 1 mM PefaBloc SC (Sigma-Aldrich #11429868001), protease/phosphatase inhibitor tablet (Thermo Fisher #A32959)]. Lysates were collected and 100 μL/well added into the human phospho-KDR DuoSet IC ELISA (R&D Systems #DYC1766-2). Assay was performed according to manufacturer's instructions and sample phospho-KDR concentrations were extrapolated using human phospho-KDR control (R&D Systems #841421) as a standard. Positive control wells (100% activity) contained VEGF165-stimulated, DMSO-treated cell lysates. Negative control wells (0% activity) contained non-stimulated cell lysates. IC50 values were calculated by nonlinear regression analysis using a 4-parameter logistic curve fit in ActivityBase XE (IDBS).

Met = Met (Homo sapiens, UniProt P08581); experiment: Met autophosphorylation ELISA in PC-3 cells; design: endogenous in cells; host or cells: PC-3 prostate cancer cells (ATCC #CRL-1435); conditions: cellular activity, HGF-stimulated, phospho-Met ELISA, read-out: c-Met IC50
Met, sequence (P08581 25-1390): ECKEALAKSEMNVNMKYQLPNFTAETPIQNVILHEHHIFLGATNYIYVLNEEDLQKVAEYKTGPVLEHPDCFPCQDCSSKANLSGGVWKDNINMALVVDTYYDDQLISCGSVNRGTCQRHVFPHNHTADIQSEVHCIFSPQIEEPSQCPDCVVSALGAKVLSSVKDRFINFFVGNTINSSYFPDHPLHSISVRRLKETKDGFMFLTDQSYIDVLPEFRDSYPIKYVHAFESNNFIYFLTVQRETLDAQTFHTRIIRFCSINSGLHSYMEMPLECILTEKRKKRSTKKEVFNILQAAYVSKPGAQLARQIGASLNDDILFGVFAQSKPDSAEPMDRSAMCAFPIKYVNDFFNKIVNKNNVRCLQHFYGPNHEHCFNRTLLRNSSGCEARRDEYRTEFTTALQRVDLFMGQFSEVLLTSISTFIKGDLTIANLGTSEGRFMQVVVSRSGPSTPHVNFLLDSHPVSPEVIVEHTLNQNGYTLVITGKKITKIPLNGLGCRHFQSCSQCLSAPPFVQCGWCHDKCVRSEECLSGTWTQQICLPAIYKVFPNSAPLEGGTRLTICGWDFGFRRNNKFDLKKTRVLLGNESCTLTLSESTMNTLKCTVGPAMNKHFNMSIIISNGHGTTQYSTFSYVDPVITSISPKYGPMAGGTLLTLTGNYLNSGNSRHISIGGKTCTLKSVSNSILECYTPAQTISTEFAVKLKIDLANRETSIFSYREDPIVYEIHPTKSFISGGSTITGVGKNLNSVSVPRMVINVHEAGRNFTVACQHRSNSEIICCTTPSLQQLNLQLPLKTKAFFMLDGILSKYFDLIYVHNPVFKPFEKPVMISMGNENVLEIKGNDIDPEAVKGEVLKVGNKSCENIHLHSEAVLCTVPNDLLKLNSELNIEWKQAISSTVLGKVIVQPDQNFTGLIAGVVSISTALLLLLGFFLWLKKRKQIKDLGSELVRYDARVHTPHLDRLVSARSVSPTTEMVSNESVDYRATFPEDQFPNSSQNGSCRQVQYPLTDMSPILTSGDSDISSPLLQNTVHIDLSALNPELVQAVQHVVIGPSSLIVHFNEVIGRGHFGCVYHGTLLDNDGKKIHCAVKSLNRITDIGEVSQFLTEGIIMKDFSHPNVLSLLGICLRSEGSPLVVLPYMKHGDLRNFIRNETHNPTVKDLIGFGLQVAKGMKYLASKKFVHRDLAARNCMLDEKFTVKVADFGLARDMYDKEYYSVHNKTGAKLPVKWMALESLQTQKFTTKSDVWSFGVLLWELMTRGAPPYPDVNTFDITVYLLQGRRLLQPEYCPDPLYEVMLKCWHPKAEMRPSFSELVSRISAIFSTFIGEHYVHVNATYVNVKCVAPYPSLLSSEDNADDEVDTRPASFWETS
Experimental: PC-3 prostate cancer cells (ATCC #CRL-1435) were seeded at 4×10^4 cells/well onto 24-well plates (Greiner #662165), in DMEM (Thermo Fisher #11995-040) containing 10% FBS (Thermo Fisher #26140-079), 1% MEM NEAA (Thermo Fisher #11140-050), 1% GlutaMax (Thermo Fisher #35050-061), and 1% Penicillin Streptomycin (Thermo Fisher #15140-122). PC-3 cells were incubated at 37° C., 5% CO2 for 24 h and then starved for 3 h in serum-free medium. Test compounds were serially diluted to produce an 8-point dose curve in fresh serum-free medium to a final concentration of 0.3% DMSO (vehicle) and added to the cells and incubated for 1 h. Cells were then stimulated with 100 ng/mL recombinant human HGF (R&D Systems #294-HG-250) for 10 min, washed with cold PBS and immediately lysed with 130 μL of cold 1× lysis buffer [20 mM Tris, 137 mM sodium chloride, 2 mM EDTA, 10% glycerol, 1% NP-40 alternative, 1 mM activated sodium orthovanadate, 1 mM PefaBloc SC (Sigma-Aldrich #11429868001), protease/phosphatase inhibitor tablet (Thermo Fisher #A32959)]. Lysates were clarified by centrifugation and 100 μL/well added into the PathScan phospho-Met (panTyr) Sandwich ELISA (Cell Signaling Technology #7333). Assay was performed according to manufacturer's instructions. Positive control wells (100% activity) contained HGF-stimulated, DMSO-treated cell lysates. Negative control wells (0% activity) contained HGF-stimulated, reference inhibitor-treated cell lysates. IC50 values were calculated by nonlinear regression analysis using a 4-parameter logistic curve fit in ActivityBase XE (IDBS).

AXL = biological target: T1, AXL (Homo sapiens, UniProt P30530); experiment: AXL autophosphorylation ELISA in A-172 cells; conditions: cellular activity, Gas6-stimulated, phospho-AXL ELISA
T1 construct: endogenous in cells; host or cells: A-172 glioblastoma cells (ATCC #CRL-1620)
T1 sequence (P30530 26-894): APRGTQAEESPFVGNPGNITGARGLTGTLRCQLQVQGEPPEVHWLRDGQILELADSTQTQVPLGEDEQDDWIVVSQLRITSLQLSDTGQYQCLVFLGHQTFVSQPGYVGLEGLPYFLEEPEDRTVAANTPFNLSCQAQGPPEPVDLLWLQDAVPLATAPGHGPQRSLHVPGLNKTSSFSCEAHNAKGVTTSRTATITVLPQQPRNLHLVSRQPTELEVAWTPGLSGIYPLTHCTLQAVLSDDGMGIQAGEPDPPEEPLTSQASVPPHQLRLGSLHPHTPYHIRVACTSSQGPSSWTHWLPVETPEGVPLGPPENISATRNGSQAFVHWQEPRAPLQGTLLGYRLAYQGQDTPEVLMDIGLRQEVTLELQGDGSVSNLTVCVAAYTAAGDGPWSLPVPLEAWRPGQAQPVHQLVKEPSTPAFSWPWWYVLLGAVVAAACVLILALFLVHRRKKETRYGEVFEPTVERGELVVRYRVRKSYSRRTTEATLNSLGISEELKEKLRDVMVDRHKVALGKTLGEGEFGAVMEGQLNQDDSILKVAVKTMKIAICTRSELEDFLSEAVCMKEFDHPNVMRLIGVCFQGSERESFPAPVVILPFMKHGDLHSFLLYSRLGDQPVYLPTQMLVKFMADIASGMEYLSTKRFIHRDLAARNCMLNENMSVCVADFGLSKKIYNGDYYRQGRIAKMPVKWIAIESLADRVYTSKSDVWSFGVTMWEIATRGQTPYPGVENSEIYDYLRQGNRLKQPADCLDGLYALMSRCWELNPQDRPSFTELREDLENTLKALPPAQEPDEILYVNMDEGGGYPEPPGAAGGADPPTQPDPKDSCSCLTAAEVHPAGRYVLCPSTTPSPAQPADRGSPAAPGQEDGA
Experimental: A-172 glioblastoma cells (ATCC #CRL-1620) were seeded at 2.5×10^5 cells/well onto 24-well plates (Greiner #662165), in DMEM (Thermo Fisher #11995-040) containing 10% FBS (Thermo Fisher #26140-079), 1% MEM NEAA (Thermo Fisher #11140-050), 1% GlutaMax (Thermo Fisher #35050-061) and 1% Penicillin Streptomycin (Thermo Fisher #15140-122). A-172 cells were incubated at 37° C., 5% CO2 for 24 h and then starved for 24 h in serum-free medium. Test compounds were serially diluted to produce an 8-point dose curve in fresh serum-free medium to a final concentration of 0.3% DMSO (vehicle) and added to the cells and incubated for 1 h. Cells were then stimulated with 1 μg/mL recombinant human Gas6 (R&D Systems #885-GSB-500) for 15 min, washed with cold PBS and immediately lysed with 150 μL of cold 1× lysis buffer [20 mM Tris, 137 mM sodium chloride, 2 mM EDTA, 10% glycerol, 1% NP-40 alternative, 1 mM activated sodium orthovanadate, 1 mM PefaBloc SC (Sigma-Aldrich #11429868001), protease/phosphatase inhibitor tablet (Thermo Fisher #A32959)]. Lysates were collected and 100 μL/well added into the human phospho-AXL DuoSet IC ELISA (R&D Systems #DYC2228-2). Assay was performed according to manufacturer's instructions and sample phospho-AXL concentrations were extrapolated using human phospho-AXL control (R&D Systems #841645) as a standard. Positive control wells (100% activity) contained Gas6-stimulated, DMSO-treated cell lysates. Negative control wells (0% activity) contained Gas6-stimulated, reference inhibitor-treated cell lysates. IC50 values were calculated by nonlinear regression analysis using a 4-parameter logistic curve fit in ActivityBase XE (IDBS).

KDR, sequence (P35968 20-1356): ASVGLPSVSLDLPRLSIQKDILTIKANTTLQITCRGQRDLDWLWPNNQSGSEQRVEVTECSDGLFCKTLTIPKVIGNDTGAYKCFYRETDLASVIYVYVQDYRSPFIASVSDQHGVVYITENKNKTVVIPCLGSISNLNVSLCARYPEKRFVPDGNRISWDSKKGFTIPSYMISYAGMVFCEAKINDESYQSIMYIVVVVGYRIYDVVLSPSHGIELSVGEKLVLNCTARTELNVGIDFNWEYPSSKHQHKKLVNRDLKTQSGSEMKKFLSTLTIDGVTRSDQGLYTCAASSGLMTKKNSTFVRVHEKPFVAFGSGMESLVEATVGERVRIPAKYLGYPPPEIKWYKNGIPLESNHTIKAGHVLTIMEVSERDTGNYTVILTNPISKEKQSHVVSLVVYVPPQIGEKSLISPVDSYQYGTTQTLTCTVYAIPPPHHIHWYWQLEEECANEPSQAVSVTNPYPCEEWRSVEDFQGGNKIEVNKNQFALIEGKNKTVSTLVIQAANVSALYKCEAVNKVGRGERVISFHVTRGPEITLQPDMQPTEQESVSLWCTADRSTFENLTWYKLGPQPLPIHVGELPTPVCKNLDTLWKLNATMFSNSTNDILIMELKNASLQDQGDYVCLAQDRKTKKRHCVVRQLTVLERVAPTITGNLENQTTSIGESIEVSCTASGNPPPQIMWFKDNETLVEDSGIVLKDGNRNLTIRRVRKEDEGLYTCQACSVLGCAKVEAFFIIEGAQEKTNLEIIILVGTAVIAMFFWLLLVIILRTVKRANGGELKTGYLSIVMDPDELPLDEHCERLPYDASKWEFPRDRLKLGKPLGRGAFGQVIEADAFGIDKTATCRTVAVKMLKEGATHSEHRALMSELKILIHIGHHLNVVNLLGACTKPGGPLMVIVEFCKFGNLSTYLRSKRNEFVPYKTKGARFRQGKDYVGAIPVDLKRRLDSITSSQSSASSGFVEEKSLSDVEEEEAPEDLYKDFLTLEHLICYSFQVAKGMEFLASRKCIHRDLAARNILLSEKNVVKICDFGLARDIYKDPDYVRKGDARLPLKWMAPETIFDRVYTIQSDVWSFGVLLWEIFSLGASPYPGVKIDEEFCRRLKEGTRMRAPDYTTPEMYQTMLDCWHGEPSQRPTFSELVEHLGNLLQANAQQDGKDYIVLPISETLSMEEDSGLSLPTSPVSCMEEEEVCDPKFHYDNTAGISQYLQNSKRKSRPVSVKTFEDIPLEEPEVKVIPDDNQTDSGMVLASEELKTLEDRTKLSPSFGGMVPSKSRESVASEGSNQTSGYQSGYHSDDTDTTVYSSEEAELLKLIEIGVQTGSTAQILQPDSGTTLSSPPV

IC50 (KDR) [nM] | IC50 (Met) [nM] | IC50 (AXL) [nM] | SMILES
> 300 | 10 to 100 | > 300 | O=C(Nc1ccc(F)cc1)C1(C(=O)Nc2ccc(Oc3ccnc4cc(C5CCOC5)ccc34)cc2)CC1 (single isomer, unassigned) [Compound 88, 1-N′-(4-Fluorophenyl)-1-N-[4-[7-[oxolan-3-yl]quinolin-4-yl]oxyphenyl]cyclopropane-1,1-dicarboxamide]
> 300 | 10 to 100 | > 300 | O=C(Nc1ccc(F)cc1)C1(C(=O)Nc2ccc(Oc3ccnc4cc(C5CCOC5)ccc34)cc2)CC1 (single isomer, unassigned) [Compound 89, 1-N′-(4-Fluorophenyl)-1-N-[4-[7-[oxolan-3-yl]quinolin-4-yl]oxyphenyl]cyclopropane-1,1-dicarboxamide]
 | 10 to 100 |  | Cc1cc(-c2ccc3c(Oc4ccc(NC(=O)C5(C(=O)Nc6ccc(F)cc6)CC5)cc4)ccnc3c2)cc(C)n1 [Compound 32, 1-N-[4-[7-(2,6-Dimethylpyridin-4-yl)quinolin-4-yl]oxyphenyl]-1-N′-(4-fluorophenyl)cyclopropane-1,1-dicarboxamide]
10 to 100 | 10 to 100 | 100 to 300 | Cc1ccc(-c2ccc3c(Oc4ccc(NC(=O)C5(C(=O)Nc6ccc(F)cc6)CC5)cc4)ccnc3c2)cn1 [Compound 37, 1-N′-(4-Fluorophenyl)-1-N-[4-[7-(6-methylpyridin-3-yl)quinolin-4-yl]oxyphenyl]cyclopropane-1,1-dicarboxamide]
10 to 100 | 100 to 300 | 100 to 300 | O=C(Nc1ccc(F)cc1)C1(C(=O)Nc2ccc(Oc3ccnc4cc(-c5ccc(C6CC6)nc5)ccc34)cc2)CC1 [Compound 43, 1-N-[4-[7-(6-Cyclopropylpyridin-3-yl)quinolin-4-yl]oxyphenyl]-1-N′-(4-fluorophenyl)cyclopropane-1,1-dicarboxamide]

The remaining lines, values behind:

SMILES | IC50 (KDR) [nM] | IC50 (Met) [nM] | IC50 (AXL) [nM]
O=C(Nc1ccc(F)cc1)C1(C(=O)Nc2ccc(Oc3ccnc4cc(-c5ccc(C(F)(F)F)nc5)ccc34)cc2)CC1 [Compound 35, 1-N′-(4-Fluorophenyl)-1-N-[4-[7-[6-(trifluoromethyl)pyridin-3-yl]quinolin-4-yl]oxyphenyl]cyclopropane-1,1-dicarboxamide] |  | 100 to 300 | 
O=C(Nc1ccc(F)cc1)C1(C(=O)Nc2ccc(Oc3ccnc4cc(-c5ccnc(C(F)(F)F)c5)ccc34)cc2)CC1 [Compound 36, 1-N′-(4-Fluorophenyl)-1-N-[4-[7-[2-(trifluoromethyl)pyridin-4-yl]quinolin-4-yl]oxyphenyl]cyclopropane-1,1-dicarboxamide] |  | 100 to 300 | 
O=C(Nc1ccc(F)cc1)C1(C(=O)Nc2ccc(Oc3ccnc4cc(-c5cnc6[nH]ccc6c5)ccc34)cc2)CC1 [Compound 44, 1-N′-(4-Fluorophenyl)-1-N-[4-[7-(1H-pyrrolo[2,3-b]pyridin-5-yl)quinolin-4-yl]oxyphenyl]cyclopropane-1,1-dicarboxamide] |  | 100 to 300 | 
O=C(Nc1ccc(F)cc1)C1(C(=O)Nc2ccc(Oc3ccnc4cc(-c5cncc(C(F)(F)F)c5)ccc34)cc2)CC1 [Compound 48, 1-N′-(4-Fluorophenyl)-1-N-[4-[7-[5-(trifluoromethyl)pyridin-3-yl]quinolin-4-yl]oxyphenyl]cyclopropane-1,1-dicarboxamide] |  | 100 to 300 | 
O=C(Nc1ccc(F)cc1)C1(C(=O)Nc2ccc(Oc3ccnc4cc(-c5ccc(N6CCCC6)nc5)ccc34)cc2)CC1 [Compound 49, 1-N′-(4-Fluorophenyl)-1-N-[4-[7-(6-pyrrolidin-1-ylpyridin-3-yl)quinolin-4-yl]oxyphenyl]cyclopropane-1,1-dicarboxamide] |  | 100 to 300 | 100 to 300
O=C(Nc1ccc(F)cc1)C1(C(=O)Nc2ccc(Oc3ccnc4cc(-c5cc(C(F)(F)F)[nH]n5)ccc34)cc2)CC1 [Compound 100, 1-N′-(4-Fluorophenyl)-1-N-[4-[7-[5-(trifluoromethyl)-1H-pyrazol-3-yl]quinolin-4-yl]oxyphenyl]cyclopropane-1,1-dicarboxamide] |  | 100 to 300 | 
Cc1cc2c(Oc3ccc(NC(=O)C4(C(=O)Nc5ccc(F)cc5)CC4)cc3)ccnc2cc1-c1cn[nH]c1 [Compound 106, 1-N′-(4-Fluorophenyl)-1-N-[4-[6-methyl-7-(1H-pyrazol-4-yl)quinolin-4-yl]oxyphenyl]cyclopropane-1,1-dicarboxamide] | ≤ 10 | 10 to 100 | 10 to 100
CN(C(=O)C1(C(=O)Nc2ccc(Oc3ccnc4cc(-c5cnn(C(F)F)c5)ccc34)cc2)CC1)c1ccc(F)cc1 [Compound 126, 1-N-[4-[7-[1-(Difluoromethyl)pyrazol-4-yl]quinolin-4-yl]oxyphenyl]-1-N′-(4-fluorophenyl)-1-N′-methylcyclopropane-1,1-dicarboxamide] |  | > 300 | 
